Measurements reported in patent US8334313B2, “Ureido substituted benzoic acid compounds and their use for nonsense suppression and the treatment of disease” (PTC Therapeutics, Inc., priority 2002, dated 2012).

The compounds below were run on luciferase reporter construct containing a UGA premature termination codon (assay: cell-based luciferase reporter assay (nonsense suppression / readthrough)). Details: ranking combining potency and efficacy of protein synthesis; UGA luciferase reporter stably transfected in 293T Human Embryonic Kidney cells.
Design: key: *****: both extremely high potency and extremely high efficacy of protein synthesis; ****: extremely high potency of protein synthesis and very high efficacy; ****: very high potency of protein synthesis and extremely high efficacy; ***: both very high potency and very high efficacy of protein synthesis; **: very high potency of protein synthesis and significant efficacy; **: significant potency of protein synthesis and very high efficacy; *: significant potency and efficacy of protein synthesis
Description: Activity measurements in Table I were performed in a cell-based luciferase reporter assay (as described in Section 4.2) comprising a luciferase reporter construct containing a UGA premature termination codon that was stably transfected in 293T Human Embryonic Kidney cells. A small molecule (3-[3-(4-Isopropyl-phenyl)-2,5-dioxoimidazolidin-1-yl]-benzoic acid) known to allow readthrough of premature termination codons, was used as an internal standard. Activity measurements are based on the qualitative relation between the minimum concentration of compound required to produce a given protein in a cell (potency) and the maximum amount of protein produced by the cell (efficacy). Potency and efficacy activities are ranked as either extremely high, very high or significant.
The test compounds identified in the nonsense suppression assay (for convenience referred to herein as a “lead” compound) can be tested for biological activity using host cells containing or engineered to contain the target RNA element coupled to a functional readout system. For example, the lead compound can be tested in a host cell engineered to contain the RNA with the premature translation termination codon controlling the expression of a reporter gene. In this example, the lead compounds are assayed in the presence or absence of the RNA with the premature translation termination codon. Compounds that modulate premature translation termination and/or nonsense-mediated mRNA decay in vivo will result in increased expression of the full-length gene, i.e., past the premature termination codon. Alternatively, a phenotypic or physiological readout can be used to assess activity of the target RNA with the premature translation termination codon in the presence and absence of the lead compound. Both the in vitro and in vivo nonsense suppression assays used herein and as described in International Patent Publication WO 01/44516, which is incorporated by reference in its entirety, can be used to identify lead compounds can also be used to determine an EC50 for the lead compounds.
A stable cell line harboring the […] nonsense-containing luciferase gene is treated with a test compound. Cells are grown in standard medium supplemented with 1% penicillin-streptomycin (P/S) and 10% fetal bovine serum (FBS) to 70% confluency and split 1:1 the day before treatment. The next day, cells are trypsinized and 40,000 cells are added to each well of a 96-well tissue culture dish. Serial dilutions of each compound are prepared to generate a six-point dose response curve spanning 2 logs ([…]). The final concentration of the DMSO solvent remains constant at 1% in each well. Cells treated with 1% DMSO serve as the background standard, and cells treated with gentamicin serve as a positive control.

SMILES	Activity
CC(C)(C)c1ccc(NC(=O)Nc2cccc(C(=O)O)c2)cc1 [Compound 33, 3-[3-(4-tert-Butylphenyl)-ureido]-benzoic acid]	**
O=C(O)c1cccc(N2CCN(c3ccc(N4CCCC4)cc3)C2=O)c1 [Compound 44, 3-[2-Oxo-3-(4-pyrrolidin-1-yl-phenyl)-imidazolidin-1-yl]-benzoic acid]	****
O=C(O)c1cccc(N2CCN(c3ccc(F)cc3)C2=O)c1 [Compound 70, 3-[3-(4-Fluoro-phenyl)-2-oxo-imidazolidin-1-yl]-benzoic acid]	*****
Cc1ccc(N2CC(=O)N(c3cccc(C(=O)O)c3)C2=O)cc1 [Compound 26, 3-(2,5-Dioxo-3-p-tolylimidazolidin-1-yl)-benzoic acid]	*
O=C(O)c1cccc(N2CCN(c3ccc(N4CCN(c5ccccc5)CC4)cc3)C2=O)c1 [Compound 56, 3-{2-Oxo-3-[4-(4-phenyl-piperazin-1-yl)-phenyl]-imidazolidin-1-yl}-benzoic acid]	*
Cc1ccc(N2CCN(c3cccc(C(=O)O)c3)C2=O)cc1F [Compound 71, 3-[3-(3-Fluoro-4-methyl-phenyl)-2-oxo-imidazolidin-1-yl]-benzoic acid]	*****
O=C(O)c1cccc(N2CCN(c3ccc(OCC(=O)N4CCN(c5ccccc5)CC4)cc3)C2=O)c1 [Compound 61, 3-(2-Oxo-3-{4-[2-oxo-2-(phenyl-piperazin-1-yl)-ethoxy]-phenyl}-imidazolidin-1-yl)-benzoic acid]	*
O=C(O)c1cccc(N2CCN(c3ccc(OCC(=O)N4CCOCC4)cc3)C2=O)c1 [Compound 77, 3-{3-[4-(2-Morpholin-4-yl-2-oxo-ethoxy)-phenyl]-2-oxo-imidazolidin-1-yl}-benzoic acid]	*
O=C(O)c1cccc(N2C(=O)CN(c3cccc(Br)c3)C2=O)c1 [Compound 18, 3-[3-(3-bromo-phenyl)-2,5-dioxo-imidazolidin-1-yl]-benzoic acid]	*
O=C(O)c1cccc(N2CCN(c3ccc(F)cc3F)C2=O)c1 [Compound 75, 3-[3-(2,4-Difluoro-phenyl)-2-oxo-imidazolidin-1-yl]-benzoic acid]	*
O=C(O)c1cccc(N2C(=O)CN(c3ccc(Oc4ccccc4)cc3)C2=O)c1 [Compound 3, 3-[2,5-dioxo-3-(4-phenoxy-phenyl)-imidazolidin-1-yl]-benzoic acid]	**
O=C(O)c1cccc(N2CCN(c3ccc(C(F)(F)F)cc3)C2=O)c1F [Compound 58, 2-Fluoro-3-[2-oxo-3-(4-trifluoromethyl-phenyl)-imidazolidin-1-yl]-benzoic acid]	**
CC(C)c1ccc(N2CCN(c3cccc(C(=O)O)c3)S2(=O)=O)cc1 [Compound 15, 3-[5-(4-isopropyl-phenyl)-1,1-dioxo-1l6-[1,2,5]-thiadiazolidin-2-yl]-benzoic acid]	**
O=C(Nc1ccc(Br)cc1)Nc1cccc(C(=O)O)c1 [Compound 22, 3-[3-(4-bromo-phenyl)-ureido]-benzoic acid]	*
O=C(O)c1cc(N2CCN(c3ccc(C(F)(F)F)cc3)C2=O)ccc1F [Compound 53, 2-Fluoro-5-[2-oxo-3-(4-trifluoromethyl-phenyl)-imidazolidin-1-yl]-benzoic acid]	****
O=C(O)c1cccc(N2CCN(c3ccc(I)cc3)C2=O)c1 [Compound 43, 3-[3-(4-Iodo-phenyl)-2-oxo-imidazolidin-1-yl]-benzoic acid]	*****

SMILES	Activity
COC(=O)c1ccc(N2CC(=O)N(c3cccc(C(=O)O)c3)C2=O)cc1 [Compound 25, 3-[3-(4-methoxycarbonylphenyl)-2,5-dioxoimidazolidin-1-yl]-benzoic acid]	*
O=C(O)c1cccc(N2CCN(c3ccc(F)c(F)c3)C2=O)c1 [Compound 65, 3-[3-(3,4-Difluoro-phenyl)-2-oxo-imidazolidin-1-yl]-benzoic acid]	*****
O=C(O)c1cccc(N2CCN(c3ccc4c(c3)OCO4)C2=O)c1 [Compound 41, 3-(3-Benzo[1,3]dioxol-5-yl-2-oxo-imidazolidin-1-yl)-benzoic acid]	*****
CC(C)c1ccc(-n2ccn(-c3cccc(C(=O)O)c3)c2=S)cc1 [Compound 37, 3-[3-(4-Isopropyl-phenyl)-2-thioxo-2,3-dihydro-imidazol-1-yl]-benzoic acid]	*
CCOC(=O)c1ccc(N2C(=O)CN(c3cccc(C(=O)O)c3)C2=O)cc1 [Compound 17, 3-[3-(4-formyl-ethylester-phenyl)-2,4-dioxo-imidazolidin-1-yl]-benzoic acid]	*
O=C(O)c1cccc(N2CCN(c3ccc(N4CCCCC4)cc3)C2=O)c1 [Compound 59, 3-[2-Oxo-3-(4-piperidin-1-yl-phenyl)-imidazolidin-1-yl]-benzoic acid]	****
CC1(C)CN(c2ccc(OC(F)(F)F)cc2)C(=O)N1c1cccc(C(=O)O)c1 [Compound 62, 3-[5,5-Dimethyl-2-oxo-3-(4-trifluoromethoxy-phenyl)-imidazolidin-1-yl]-benzoic acid]	*
CC(C)c1ccc(N2CCCN(c3cccc(C(=O)O)c3)S2(=O)=O)cc1 [Compound 7, 3-[6-(4-isopropyl-phenyl)-1,1-dioxo-1l6-[1,2,6]-thiadiazinan-2-yl]-benzoic acid]	*
CC(C)c1cccc(N2CCN(c3cccc(C(=O)O)c3)C2=O)c1 [Compound 36, 3-[3-(3-Isopropyl-phenyl)-2-oxo-imidazolidin-1-yl]-benzoic acid]	****
O=C(O)c1cccc(N2CCN(c3ccc(F)c(C(F)(F)F)c3)C2=O)c1 [Compound 63, 3-[3-(4-Fluoro-3-trifluoromethyl-phenyl)-2-oxo-imidazolidin-1-yl]-benzoic acid]	****
COc1cccc(N2C(=O)CN(c3cccc(C(=O)O)c3)C2=O)c1 [Compound 11, 3-[3-(3-methoxy-phenyl)-2,4-dioxo-imidazolidin-1-yl]-benzoic acid]	*
O=C(O)c1cccc(N2CCN(c3ccccc3F)C2=O)c1 [Compound 68, 3-[3-(2-Fluoro-phenyl)-2-oxo-imidazolidin-1-yl]-benzoic acid]	***
CC1(C)CN(c2cccc(C(=O)O)c2)C(=O)N1c1ccc(OC(F)(F)F)cc1 [Compound 82, 3-[4,4-Dimethyl-2-oxo-3-(4-trifluoromethoxy-phenyl)-imidazolidin-1-yl]-benzoic acid]	*
O=C(O)c1cccc(N2CCN(c3ccc(F)nc3)C2=O)c1 [Compound 79, 3-[3-(6-Fluoro-pyridin-3-yl)-2-oxo-imidazolidin-1-yl]-benzoic acid]	*
CC(C)c1ccc(-n2ccn(-c3cccc(C(=O)O)c3)c2=O)cc1 [Compound 35, 3-[3-(4-Isopropyl-phenyl)-2-oxo-2,3-dihydro-imidazol-1-yl]-benzoic acid]	***
O=C(O)c1cccc(N2CCN(c3ccc4c(c3)OC(F)(F)O4)C2=O)c1 [Compound 50, 3-[3-(2,2-Difluoro-benzo[1,3]dioxol-5-yl)-2-oxo-imidazolidin-1-yl]-benzoic acid]	****
